Measurements published in PubChem BioAssay AID2060494 (Molecular Pharmacology Branch, DTP, NCI, 2025).
One block for each compound: values may come before it.

System: 435261-313-R-J1-PDC complex spheroid viability
Assay: Anticancer human tumor 435261-313-R-J1-PDC patient-derived colon adenocarcinoma cell line growth inhibition [GQUAD]
Conditions: for IC50: curve of first compound; for viability, T/C: stronger effect = lower value
Summary of the method: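 Viability of tumor cells grown as complex spheroids with endothelial and stromal cells, exposed to drug combinations. Top concentration at or near clinical Cmax (else 10 microM), diluted in half-log increments.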

[1] = second compound 0.0316 µM, first compound 0.0316 µM
[2] = second compound 0.0316 µM, first compound 0.1 µM
[3] = second compound 0.0316 µM, first compound 0.316 µM
[4] = second compound 0.0316 µM, first compound 1 µM
[5] = second compound 0.0316 µM, first compound 3.16 µM
[6] = second compound 0.0316 µM, first compound 10 µM
[7] = second compound 0.1 µM, first compound 0.0316 µM
[8] = second compound 0.1 µM, first compound 0.1 µM
[9] = second compound 0.1 µM, first compound 0.316 µM
[10] = second compound 0.1 µM, first compound 1 µM
[11] = second compound 0.1 µM, first compound 3.16 µM
[12] = second compound 0.1 µM, first compound 10 µM
[13] = second compound 0.316 µM, first compound 0.0316 µM
[14] = second compound 0.316 µM, first compound 0.1 µM
[15] = second compound 0.316 µM, first compound 0.316 µM
[16] = second compound 0.316 µM, first compound 1 µM
[17] = second compound 0.316 µM, first compound 3.16 µM
[18] = second compound 0.316 µM, first compound 10 µM
[19] = second compound 1 µM, first compound 0.0316 µM
[20] = second compound 1 µM, first compound 0.1 µM
[21] = second compound 1 µM, first compound 0.316 µM
[22] = second compound 1 µM, first compound 1 µM
[23] = second compound 1 µM, first compound 3.16 µM
[24] = second compound 1 µM, first compound 10 µM
[25] = second compound 3.16 µM, first compound 0.0316 µM
[26] = second compound 3.16 µM, first compound 0.1 µM
[27] = second compound 3.16 µM, first compound 0.316 µM
[28] = second compound 3.16 µM, first compound 1 µM
[29] = second compound 3.16 µM, first compound 3.16 µM
[30] = second compound 3.16 µM, first compound 10 µM
[31] = second compound 10 µM, first compound 0.0316 µM
[32] = second compound 10 µM, first compound 0.1 µM
[33] = second compound 10 µM, first compound 0.316 µM
[34] = second compound 10 µM, first compound 1 µM
[35] = second compound 10 µM, first compound 3.16 µM
[36] = second compound 10 µM, first compound 10 µM
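Further: spheroids exposed to the agents for seven days before readout.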
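Wherever viability, T/C is given: percent of vehicle control viability with DMSO wells as 100%.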

IC50 (second compound 0.0316 µM): > 10000 nM
IC50 (second compound 0.1 µM): > 10000 nM
IC50 (second compound 0.316 µM): > 10000 nM
IC50 (second compound 1 µM): < 31.6 nM
IC50 (second compound 3.16 µM): < 31.6 nM
IC50 (second compound 10 µM): < 31.6 nM
SMILES: O=C(c1cc(Cc2n[nH]c(=O)c3ccccc23)ccc1F)N1CCN(C(=O)C2CC2)CC1 + Cc1cnc(CNC(=O)c2c(=O)c3ccc(N4CCCN(C)CC4)nc3n3c2sc2ccccc23)cn1
viability, T/C [1]: 76%
viability, T/C [2]: 60.9%
viability, T/C [3]: 66.3%
viability, T/C [4]: 68.2%
viability, T/C [5]: 84%
viability, T/C [6]: 77.7%
viability, T/C [7]: 65.2%
viability, T/C [8]: 65.1%
viability, T/C [9]: 58.3%
viability, T/C [10]: 62%
viability, T/C [11]: 64%
viability, T/C [12]: 62.1%
viability, T/C [13]: 59.4%
viability, T/C [14]: 53.8%
viability, T/C [15]: 58.7%
viability, T/C [16]: 59.6%
viability, T/C [17]: 53%
viability, T/C [18]: 52.2%
viability, T/C [19]: 38.6%
viability, T/C [20]: 45.9%
viability, T/C [21]: 38.1%
viability, T/C [22]: 42.7%
viability, T/C [23]: 55.9%
viability, T/C [24]: 37.6%
viability, T/C [25]: 26.4%
viability, T/C [26]: 9.89%
viability, T/C [27]: 25.5%
viability, T/C [28]: 15.3%
viability, T/C [29]: 27.3%
viability, T/C [30]: 20.5%
viability, T/C [31]: 0.23%
viability, T/C [32]: 0.23%
viability, T/C [33]: 0.21%
viability, T/C [34]: 0.23%
viability, T/C [35]: 0.22%
viability, T/C [36]: 0.23%

IC50 (second compound 0.0316 µM): 53.2 nM
IC50 (second compound 0.1 µM): 48 nM
IC50 (second compound 0.316 µM): 11.2 nM
IC50 (second compound 1 µM): < 0.999 nM
IC50 (second compound 3.16 µM): < 0.999 nM
IC50 (second compound 10 µM): < 0.999 nM
SMILES: CCc1c2c(nc3ccc(O)cc13)-c1cc3c(c(=O)n1C2)COC(=O)[C@]3(O)CC + Cc1cnc(CNC(=O)c2c(=O)c3ccc(N4CCCN(C)CC4)nc3n3c2sc2ccccc23)cn1
viability, T/C (second compound 0.0316 µM, first compound 0.000999 µM): 63.5%
viability, T/C (second compound 0.0316 µM, first compound 0.00316 µM): 60.3%
viability, T/C (second compound 0.0316 µM, first compound 0.00999 µM): 56.9%
viability, T/C [1]: 53.3%
viability, T/C (second compound 0.0316 µM, first compound 0.0999 µM): 47%
viability, T/C [3]: 30.9%
viability, T/C (second compound 0.1 µM, first compound 0.000999 µM): 66.2%
viability, T/C (second compound 0.1 µM, first compound 0.00316 µM): 65.6%
viability, T/C (second compound 0.1 µM, first compound 0.00999 µM): 52.2%
viability, T/C [7]: 52.7%
viability, T/C (second compound 0.1 µM, first compound 0.0999 µM): 47.1%
viability, T/C [9]: 17.5%
viability, T/C (second compound 0.316 µM, first compound 0.000999 µM): 52.9%
viability, T/C (second compound 0.316 µM, first compound 0.00316 µM): 60%
viability, T/C (second compound 0.316 µM, first compound 0.00999 µM): 51.5%
viability, T/C [13]: 34.5%
viability, T/C (second compound 0.316 µM, first compound 0.0999 µM): 36.9%
viability, T/C [15]: 1.36%
viability, T/C (second compound 1 µM, first compound 0.000999 µM): 38.9%
viability, T/C (second compound 1 µM, first compound 0.00316 µM): 35%
viability, T/C (second compound 1 µM, first compound 0.00999 µM): 35.6%
viability, T/C [19]: 28.7%
viability, T/C (second compound 1 µM, first compound 0.0999 µM): 14.9%
viability, T/C [21]: 0.15%
viability, T/C (second compound 3.16 µM, first compound 0.000999 µM): 13.5%
viability, T/C (second compound 3.16 µM, first compound 0.00316 µM): 12.2%
viability, T/C (second compound 3.16 µM, first compound 0.00999 µM): 4.86%
viability, T/C [25]: 0.17%
viability, T/C (second compound 3.16 µM, first compound 0.0999 µM): 0.14%
viability, T/C [27]: 0.15%
viability, T/C (second compound 10 µM, first compound 0.000999 µM): 0.15%
viability, T/C (second compound 10 µM, first compound 0.00316 µM): 0.14%
viability, T/C (second compound 10 µM, first compound 0.00999 µM): 0.19%
viability, T/C [31]: 0.2%
viability, T/C (second compound 10 µM, first compound 0.0999 µM): 0.2%
viability, T/C [33]: 0.14%

SMILES: CC(=O)O[C@H]1C(=O)[C@@]2(C)[C@H]([C@H](OC(=O)c3ccccc3)[C@]3(O)C[C@H](OC(=O)[C@H](O)[C@@H](NC(=O)c4ccccc4)c4ccccc4)C(C)=C1C3(C)C)[C@]1(OC(C)=O)CO[C@@H]1C[C@@H]2O + CN(C)c1ccc(Nc2c3ccc(NC(=O)CCN4CCCC4)cc3nc3cc(NC(=O)CCN4CCCC4)ccc23)cc1
IC50 (second compound 0.0316 µM): > 10000 nM
IC50 (second compound 0.1 µM): > 10000 nM
IC50 (second compound 0.316 µM): > 10000 nM
IC50 (second compound 1 µM): > 10000 nM
IC50 (second compound 3.16 µM): > 10000 nM
IC50 (second compound 10 µM): < 31.6 nM
viability, T/C [1]: 94.3%
viability, T/C [2]: 78.6%
viability, T/C [3]: 84.6%
viability, T/C [4]: 69.9%
viability, T/C [5]: 69.1%
viability, T/C [6]: 76.5%
viability, T/C [7]: 71.9%
viability, T/C [8]: 72.5%
viability, T/C [9]: 77.4%
viability, T/C [10]: 62%
viability, T/C [11]: 75.3%
viability, T/C [12]: 70.5%
viability, T/C [13]: 72.5%
viability, T/C [14]: 82.5%
viability, T/C [15]: 73.7%
viability, T/C [16]: 69.2%
viability, T/C [17]: 68.4%
viability, T/C [18]: 61.5%
viability, T/C [19]: 80.4%
viability, T/C [20]: 61.5%
viability, T/C [21]: 59.4%
viability, T/C [22]: 63.5%
viability, T/C [23]: 73.3%
viability, T/C [24]: 63.6%
viability, T/C [25]: 52.3%
viability, T/C [26]: 52.6%
viability, T/C [27]: 48.6%
viability, T/C [28]: 60.9%
viability, T/C [29]: 52.8%
viability, T/C [30]: 55.1%
viability, T/C [31]: 31.6%
viability, T/C [32]: 19.9%
viability, T/C [33]: 23.6%
viability, T/C [34]: 21.2%
viability, T/C [35]: 27.5%
viability, T/C [36]: 16.8%
